Laboratory results taken from patent EP4722207A1, “OXOISOINDOLINYL-SUBSTITUTED TETRAHYDROPYRIMIDINEDIONE DERIVATIVE AND USE THEREOF” (Gluetacs Therapeutics (Shanghai) Co., Ltd., priority 2023, dated 2024).

Assays:
Type in all cases: cell-based
IKZF2 = target: T1, IKZF2 (Homo sapiens, UniProt Q96SW2+Q9UKS7); assay: Western-blot assay, substrate protein degradation in hPBMCs: IKZF2; conditions: for substrate protein remaining % IKZF2: 24 hours of compound treatment, 50 nM and 500 nM; for IKZF2 substrate protein remaining %: compounds at 50 nM and 500 nM, 24 hours
T1 construct: effects of the compounds of the present disclosure on the expression of target proteins in cells; endogenous in cells; host or cells: human PBMCs (hPBMCs)

IKZF3 = target: T2, IKZF3 (Homo sapiens, UniProt Q96SW2+Q9UKT9); assay: Western-blot assay, substrate protein degradation in hPBMCs: IKZF3; conditions: for substrate protein remaining % IKZF3: 24 hours of compound treatment, 50 nM and 500 nM; for IKZF3 substrate protein remaining %: compounds at 50 nM and 500 nM, 24 hours
T2 construct: effects of the compounds of the present disclosure on the expression of target proteins in cells; endogenous in cells; host or cells: human PBMCs (hPBMCs)

WEE1 = target: T3, WEE1 (Homo sapiens, UniProt P30291+Q96SW2); assay: Western-blot assay, substrate protein degradation in hPBMCs: WEE1; conditions: for substrate protein remaining % WEE1: 24 hours of compound treatment, 50 nM and 500 nM; for WEE1 substrate protein remaining %: compounds at 50 nM and 500 nM, 24 hours
T3 construct: effects of the compounds of the present disclosure on the expression of target proteins in cells; endogenous in cells; host or cells: human PBMCs (hPBMCs)

CK1α = target: T4, CK1α (Homo sapiens, UniProt P48729+Q96SW2); assay: Western-blot assay, substrate protein degradation in hPBMCs: CK1α; conditions: for substrate protein remaining % CK1α: 24 hours of compound treatment, 50 nM and 500 nM; for CK1α substrate protein remaining %: compounds at 50 nM and 500 nM, 24 hours
T4 construct: effects of the compounds of the present disclosure on the expression of target proteins in cells; endogenous in cells; host or cells: human PBMCs (hPBMCs)

GSPT1 = target: T5, GSPT1 (Homo sapiens, UniProt P15170+Q96SW2); assay: Western-blot assay, substrate protein degradation in hPBMCs: GSPT1; conditions: for substrate protein remaining % GSPT1: 24 hours of compound treatment, 50 nM and 500 nM; for GSPT1 substrate protein remaining %: compounds at 50 nM and 500 nM, 24 hours
T5 construct: effects of the compounds of the present disclosure on the expression of target proteins in cells; endogenous in cells; host or cells: human PBMCs (hPBMCs)

IKZF1 = target: T6, IKZF1 (Homo sapiens, UniProt Q13422+Q96SW2); assay: Western-blot assay, substrate protein degradation in hPBMCs: IKZF1; conditions: for substrate protein remaining % IKZF1: 24 hours of compound treatment, 50 nM and 500 nM; for IKZF1 substrate protein remaining %: compounds at 50 nM and 500 nM, 24 hours
T6 construct: effects of the compounds of the present disclosure on the expression of target proteins in cells; endogenous in cells; host or cells: human PBMCs (hPBMCs)
T6 sequence (Q13422 whole entry): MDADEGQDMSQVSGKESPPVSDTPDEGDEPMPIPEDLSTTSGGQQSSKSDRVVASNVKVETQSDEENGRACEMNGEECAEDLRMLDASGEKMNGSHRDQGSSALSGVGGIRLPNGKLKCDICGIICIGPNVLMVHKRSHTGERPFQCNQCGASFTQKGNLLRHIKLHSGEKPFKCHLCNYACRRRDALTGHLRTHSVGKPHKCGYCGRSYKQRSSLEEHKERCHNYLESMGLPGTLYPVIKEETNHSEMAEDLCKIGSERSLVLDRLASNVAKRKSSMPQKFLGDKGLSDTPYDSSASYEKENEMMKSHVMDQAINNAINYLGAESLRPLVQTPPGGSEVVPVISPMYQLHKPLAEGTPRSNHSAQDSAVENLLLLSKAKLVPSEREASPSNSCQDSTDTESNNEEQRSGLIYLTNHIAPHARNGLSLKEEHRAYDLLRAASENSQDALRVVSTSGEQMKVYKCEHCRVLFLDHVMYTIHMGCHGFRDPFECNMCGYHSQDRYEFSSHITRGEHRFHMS
T6 sequence (Q96SW2 whole entry): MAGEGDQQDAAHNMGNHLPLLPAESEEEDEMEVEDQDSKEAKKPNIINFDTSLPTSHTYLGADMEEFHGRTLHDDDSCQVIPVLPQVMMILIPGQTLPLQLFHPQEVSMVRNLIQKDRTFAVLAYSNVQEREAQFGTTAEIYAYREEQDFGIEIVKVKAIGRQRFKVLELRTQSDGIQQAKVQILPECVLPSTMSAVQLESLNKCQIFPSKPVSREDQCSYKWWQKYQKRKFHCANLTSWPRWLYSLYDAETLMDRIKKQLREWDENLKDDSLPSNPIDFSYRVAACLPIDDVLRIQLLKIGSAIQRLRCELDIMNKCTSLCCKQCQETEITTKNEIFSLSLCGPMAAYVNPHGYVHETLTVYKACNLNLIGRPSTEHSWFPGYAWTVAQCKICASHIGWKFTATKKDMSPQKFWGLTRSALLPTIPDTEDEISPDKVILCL
T6 sequence (Q16531 whole entry partner): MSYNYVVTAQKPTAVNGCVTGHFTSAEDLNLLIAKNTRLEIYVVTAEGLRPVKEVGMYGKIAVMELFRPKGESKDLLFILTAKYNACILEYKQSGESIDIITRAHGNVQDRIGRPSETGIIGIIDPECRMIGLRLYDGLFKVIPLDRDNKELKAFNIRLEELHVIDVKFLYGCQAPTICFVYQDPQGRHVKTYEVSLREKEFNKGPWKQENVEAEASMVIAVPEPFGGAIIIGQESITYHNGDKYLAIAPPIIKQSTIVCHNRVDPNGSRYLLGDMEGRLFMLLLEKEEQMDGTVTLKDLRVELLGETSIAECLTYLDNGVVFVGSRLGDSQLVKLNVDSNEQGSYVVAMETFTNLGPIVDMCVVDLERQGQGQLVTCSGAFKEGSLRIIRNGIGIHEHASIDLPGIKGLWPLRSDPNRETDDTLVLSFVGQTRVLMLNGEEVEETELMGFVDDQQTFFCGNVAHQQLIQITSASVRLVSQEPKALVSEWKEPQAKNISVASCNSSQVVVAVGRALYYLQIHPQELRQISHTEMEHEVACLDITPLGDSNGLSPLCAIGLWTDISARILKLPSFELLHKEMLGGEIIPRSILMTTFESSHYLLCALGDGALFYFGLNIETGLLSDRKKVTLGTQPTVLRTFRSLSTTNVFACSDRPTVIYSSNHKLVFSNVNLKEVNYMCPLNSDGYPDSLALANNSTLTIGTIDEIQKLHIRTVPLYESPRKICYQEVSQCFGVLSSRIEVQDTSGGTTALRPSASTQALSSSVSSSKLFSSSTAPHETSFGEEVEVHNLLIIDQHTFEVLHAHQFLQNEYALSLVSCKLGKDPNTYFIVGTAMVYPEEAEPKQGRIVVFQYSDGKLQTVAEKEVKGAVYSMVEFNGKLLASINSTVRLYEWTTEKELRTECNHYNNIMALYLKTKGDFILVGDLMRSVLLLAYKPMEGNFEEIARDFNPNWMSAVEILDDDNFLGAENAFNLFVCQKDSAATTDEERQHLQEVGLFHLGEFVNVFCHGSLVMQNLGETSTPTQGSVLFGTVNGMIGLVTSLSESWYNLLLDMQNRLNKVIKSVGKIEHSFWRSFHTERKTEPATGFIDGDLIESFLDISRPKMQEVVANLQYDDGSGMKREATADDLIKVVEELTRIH

T3 sequence (P30291 whole entry): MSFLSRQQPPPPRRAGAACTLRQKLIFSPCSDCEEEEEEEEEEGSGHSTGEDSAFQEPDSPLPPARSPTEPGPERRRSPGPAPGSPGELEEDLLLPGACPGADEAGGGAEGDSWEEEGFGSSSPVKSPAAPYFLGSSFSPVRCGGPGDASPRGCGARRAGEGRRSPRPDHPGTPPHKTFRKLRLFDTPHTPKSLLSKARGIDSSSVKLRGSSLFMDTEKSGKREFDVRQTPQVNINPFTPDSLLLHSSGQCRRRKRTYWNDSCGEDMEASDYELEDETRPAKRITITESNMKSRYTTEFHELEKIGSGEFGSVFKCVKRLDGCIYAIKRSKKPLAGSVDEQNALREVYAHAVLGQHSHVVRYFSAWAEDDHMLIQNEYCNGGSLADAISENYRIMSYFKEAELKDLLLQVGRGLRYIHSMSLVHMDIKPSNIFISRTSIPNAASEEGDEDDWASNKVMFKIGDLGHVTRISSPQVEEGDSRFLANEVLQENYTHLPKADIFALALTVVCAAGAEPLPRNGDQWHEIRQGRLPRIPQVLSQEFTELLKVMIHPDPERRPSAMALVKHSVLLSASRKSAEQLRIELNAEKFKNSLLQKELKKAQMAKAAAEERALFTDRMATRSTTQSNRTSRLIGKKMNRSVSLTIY
T3 sequence (Q96SW2 whole entry): as the sequence (Q96SW2 whole entry) above
T3 sequence (Q16531 whole entry partner): as the sequence (Q16531 whole entry partner) above
T1 sequence (Q9UKS7 whole entry): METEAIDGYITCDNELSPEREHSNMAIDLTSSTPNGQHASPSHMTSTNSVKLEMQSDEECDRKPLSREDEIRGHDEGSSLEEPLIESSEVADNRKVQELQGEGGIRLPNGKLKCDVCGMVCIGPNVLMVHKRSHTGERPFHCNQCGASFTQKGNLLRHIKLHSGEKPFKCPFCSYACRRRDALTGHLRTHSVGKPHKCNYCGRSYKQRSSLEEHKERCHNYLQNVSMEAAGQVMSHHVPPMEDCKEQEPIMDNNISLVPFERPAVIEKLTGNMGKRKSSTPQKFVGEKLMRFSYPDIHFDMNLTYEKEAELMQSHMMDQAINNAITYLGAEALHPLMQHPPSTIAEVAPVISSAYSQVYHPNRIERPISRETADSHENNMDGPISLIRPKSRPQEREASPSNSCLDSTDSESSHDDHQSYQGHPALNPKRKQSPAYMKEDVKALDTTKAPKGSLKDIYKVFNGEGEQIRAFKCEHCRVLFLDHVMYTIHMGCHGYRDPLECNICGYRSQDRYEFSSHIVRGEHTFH
T1 sequence (Q96SW2 whole entry): as the sequence (Q96SW2 whole entry) above
T1 sequence (Q16531 whole entry partner): as the sequence (Q16531 whole entry partner) above
T5 sequence (P15170 whole entry): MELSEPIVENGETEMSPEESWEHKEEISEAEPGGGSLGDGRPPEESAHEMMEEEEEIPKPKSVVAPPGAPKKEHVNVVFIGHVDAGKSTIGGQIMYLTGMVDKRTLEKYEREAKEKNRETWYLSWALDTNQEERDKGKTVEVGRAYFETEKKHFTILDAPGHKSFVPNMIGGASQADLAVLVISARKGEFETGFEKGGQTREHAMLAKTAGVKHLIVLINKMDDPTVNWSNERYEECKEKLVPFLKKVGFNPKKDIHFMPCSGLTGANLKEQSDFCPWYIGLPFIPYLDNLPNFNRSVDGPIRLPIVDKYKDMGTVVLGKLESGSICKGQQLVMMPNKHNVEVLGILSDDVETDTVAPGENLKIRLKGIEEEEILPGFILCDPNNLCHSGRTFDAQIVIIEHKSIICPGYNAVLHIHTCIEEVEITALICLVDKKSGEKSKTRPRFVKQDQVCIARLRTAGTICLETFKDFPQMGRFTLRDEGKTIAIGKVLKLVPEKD
T5 sequence (Q96SW2 whole entry): as the sequence (Q96SW2 whole entry) above
T5 sequence (Q16531 whole entry partner): as the sequence (Q16531 whole entry partner) above
T2 sequence (Q9UKT9 whole entry): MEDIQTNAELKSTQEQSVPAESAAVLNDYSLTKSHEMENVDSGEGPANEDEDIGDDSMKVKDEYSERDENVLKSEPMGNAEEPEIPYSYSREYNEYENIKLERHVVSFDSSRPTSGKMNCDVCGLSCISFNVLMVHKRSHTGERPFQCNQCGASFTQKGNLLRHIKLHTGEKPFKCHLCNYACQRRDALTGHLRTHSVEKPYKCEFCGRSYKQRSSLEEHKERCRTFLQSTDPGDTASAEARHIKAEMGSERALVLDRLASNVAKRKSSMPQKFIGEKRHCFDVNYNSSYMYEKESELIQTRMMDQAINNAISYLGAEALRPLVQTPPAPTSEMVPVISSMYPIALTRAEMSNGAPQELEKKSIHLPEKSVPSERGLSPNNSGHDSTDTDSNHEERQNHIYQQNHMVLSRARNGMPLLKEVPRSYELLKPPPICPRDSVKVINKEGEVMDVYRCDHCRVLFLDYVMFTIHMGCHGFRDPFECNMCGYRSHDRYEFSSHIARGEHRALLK
T2 sequence (Q96SW2 whole entry): as the sequence (Q96SW2 whole entry) above
T2 sequence (Q16531 whole entry partner): as the sequence (Q16531 whole entry partner) above

## O=C1CCN(N2C(=O)c3ccc(CN4CCC(C5CCOc6cc(F)ccc65)CC4)cc3C2=O)C(=O)N1 (stereo not drawn) [GT-07684, 2-(2,4-dioxotetrahydropyrimidin-1(2H)-yl)-5-((4-(7-fluorochroman-4-yl)piperidin-1-yl)methyl)isoindoline-1,3-dione]
IKZF2
  substrate protein remaining % IKZF2: B (80%< substrate protein remaining %≤ 100%)
IKZF3
  substrate protein remaining % IKZF3: B (80%< substrate protein remaining %≤ 100%)
WEE1
  substrate protein remaining % WEE1: B (80%< substrate protein remaining %≤ 100%)
CK1α
  substrate protein remaining % CK1α: B (80%< substrate protein remaining %≤ 100%)
GSPT1
  substrate protein remaining % GSPT1: A (0% ≤ substrate protein remaining % ≤ 80%)
IKZF1
  substrate protein remaining % IKZF1: B (80%< substrate protein remaining %≤ 100%)

## O=C1CCN(N2Cc3cc(CN4CCN(c5c(F)cncc5Cl)CC4)ccc3C2=O)C(=O)N1 [GT-07171]
IKZF2
  IKZF2 substrate protein remaining %: B ("B" is defined as 80%< substrate protein remaining %≤ 100%)
IKZF3
  IKZF3 substrate protein remaining %: B ("B" is defined as 80%< substrate protein remaining %≤ 100%)
WEE1
  WEE1 substrate protein remaining %: A ("A" is defined as 0% ≤ substrate protein remaining % ≤ 80%)
CK1α
  CK1α substrate protein remaining %: B ("B" is defined as 80%< substrate protein remaining %≤ 100%)
GSPT1
  GSPT1 substrate protein remaining %: B ("B" is defined as 80%< substrate protein remaining %≤ 100%)
IKZF1
  IKZF1 substrate protein remaining %: B ("B" is defined as 80%< substrate protein remaining %≤ 100%)

## O=C1CCN(N2C(=O)c3ccc(CN4CCN(c5nc(N6CCOCC6)nc6c5SCC6)CC4)cc3C2=O)C(=O)N1 [GT-08450, 2-(2,4-dioxotetrahydropyrimidin-1(2H)-yl)-5-((4-(2-morpholino-6,7-dihydrothieno[3,2-d]pyrimidin-4-yl)piperazin-1-yl)methyl)isoindoline-1,3-dione]
IKZF2
  substrate protein remaining % IKZF2: B (80%< substrate protein remaining %≤ 100%)
IKZF3
  substrate protein remaining % IKZF3: B (80%< substrate protein remaining %≤ 100%)
WEE1
  substrate protein remaining % WEE1: B (80%< substrate protein remaining %≤ 100%)
CK1α
  substrate protein remaining % CK1α: B (80%< substrate protein remaining %≤ 100%)
GSPT1
  substrate protein remaining % GSPT1: A (0% ≤ substrate protein remaining % ≤ 80%)
IKZF1
  substrate protein remaining % IKZF1: B (80%< substrate protein remaining %≤ 100%)

## O=C1CCN(N2C(=O)c3ccc(CN4CC=C(c5ccoc5)CC4)cc3C2=O)C(=O)N1 [GT-07442, 2-(2,4-dioxotetrahydropyrimidin-1(2H)-yl)-5-((4-(furan-3-yl)-3,6-dihydropyridin-1(2H)-yl)methyl)isoindoline-1,3-dione]
IKZF2
  substrate protein remaining % IKZF2: B (80%< substrate protein remaining %≤ 100%)
IKZF3
  substrate protein remaining % IKZF3: A (0% ≤ substrate protein remaining % ≤ 80%)
WEE1
  substrate protein remaining % WEE1: A (0% ≤ substrate protein remaining % ≤ 80%)
CK1α
  substrate protein remaining % CK1α: B (80%< substrate protein remaining %≤ 100%)
GSPT1
  substrate protein remaining % GSPT1: A (0% ≤ substrate protein remaining % ≤ 80%)
IKZF1
  substrate protein remaining % IKZF1: B (80%< substrate protein remaining %≤ 100%)

## O=C1CCN(N2Cc3cc(CN4CCN(c5nc(Cl)nc6ccsc56)CC4)ccc3C2=O)C(=O)N1 [GT-08444, 1-(5-((4-(2-chlorothieno[3,2-d]pyrimidin-4-yl)piperazin-1-yl)methyl)-1-oxoisoindolin-2-yl)dihydropyrimidine-2,4(1H,3H)-dione]
IKZF2
  substrate protein remaining % IKZF2: B (80%< substrate protein remaining %≤ 100%)
IKZF3
  substrate protein remaining % IKZF3: B (80%< substrate protein remaining %≤ 100%)
WEE1
  substrate protein remaining % WEE1: A (0% ≤ substrate protein remaining % ≤ 80%)
CK1α
  substrate protein remaining % CK1α: B (80%< substrate protein remaining %≤ 100%)
GSPT1
  substrate protein remaining % GSPT1: B (80%< substrate protein remaining %≤ 100%)
IKZF1
  substrate protein remaining % IKZF1: B (80%< substrate protein remaining %≤ 100%)

## O=C1CCN(N2C(=O)c3ccc(CN4C5CC4CN(C(=O)C4=C(c6ccc(F)cc6)CCCC4)C5)cc3C2=O)C(=O)N1 [GT-07377, 2-(2,4-dioxotetrahydropyrimidin-1(2H)-yl)-5-((3-(4'-fluoro-3,4,5,6-tetrahydro-[1,1'-biphenyl]-2-carbonyl)-3,6-diazabicyclo[3.1.1]heptan-6-yl)methyl)isoindoline-1,3-dione]
IKZF2
  substrate protein remaining % IKZF2: A (0% ≤ substrate protein remaining % ≤ 80%)
IKZF3
  substrate protein remaining % IKZF3: B (80%< substrate protein remaining %≤ 100%)
WEE1
  substrate protein remaining % WEE1: A (0% ≤ substrate protein remaining % ≤ 80%)
CK1α
  substrate protein remaining % CK1α: A (0% ≤ substrate protein remaining % ≤ 80%)
GSPT1
  substrate protein remaining % GSPT1: A (0% ≤ substrate protein remaining % ≤ 80%)
IKZF1
  substrate protein remaining % IKZF1: B (80%< substrate protein remaining %≤ 100%)

## O=C1CCN(N2Cc3cc(CN4CC5CCC(C4)N5C(c4ccccc4)c4ccccc4)ccc3C2=O)C(=O)N1 [GT-06452, 1-(5-((8-benzhydryl-3,8-diazabicyclo[3.2.1]octan-3-yl)methyl)-1-oxoisoindolin-2-yl)dihydropyrimidine-2,4(1H,3H)-dione]
IKZF2
  IKZF2 substrate protein remaining %: B ("B" is defined as 80%< substrate protein remaining %≤ 100%)
IKZF3
  IKZF3 substrate protein remaining %: B ("B" is defined as 80%< substrate protein remaining %≤ 100%)
WEE1
  WEE1 substrate protein remaining %: A ("A" is defined as 0% ≤ substrate protein remaining % ≤ 80%)
CK1α
  CK1α substrate protein remaining %: B ("B" is defined as 80%< substrate protein remaining %≤ 100%)
GSPT1
  GSPT1 substrate protein remaining %: B ("B" is defined as 80%< substrate protein remaining %≤ 100%)
IKZF1
  IKZF1 substrate protein remaining %: B ("B" is defined as 80%< substrate protein remaining %≤ 100%)

## CC1(C)CCC(CN2CC3CCC2CN3Cc2ccc3c(c2)CN(N2CCC(=O)NC2=O)C3=O)=C(c2ccc(Cl)cc2)C1 (stereo not drawn) [GT-07331, 1-(5-((5-((4'-chloro-5,5-dimethyl-3,4,5,6-tetrahydro-[1,1'-biphenyl]-2-yl)methyl)-2,5-diazabicyclo[2.2.2]octan-2-yl)methyl)-1-oxoisoindolin-2-yl)dihydropyrimidine-2,4(1H,3H)-dione]
IKZF2
  substrate protein remaining % IKZF2: B (80%< substrate protein remaining %≤ 100%)
IKZF3
  substrate protein remaining % IKZF3: A (0% ≤ substrate protein remaining % ≤ 80%)
WEE1
  substrate protein remaining % WEE1: A (0% ≤ substrate protein remaining % ≤ 80%)
CK1α
  substrate protein remaining % CK1α: A (0% ≤ substrate protein remaining % ≤ 80%)
GSPT1
  substrate protein remaining % GSPT1: A (0% ≤ substrate protein remaining % ≤ 80%)
IKZF1
  substrate protein remaining % IKZF1: A (0% ≤ substrate protein remaining % ≤ 80%)

## O=C1CCN(N2Cc3cc(CN4CCN(c5nccc(I)c5F)CC4)ccc3C2=O)C(=O)N1 [GT-05406, 1-(5-((4-(3-fluoro-4-iodopyridin-2-yl)piperazin-1-yl)methyl)-1-oxoisoindolin-2-yl)dihydropyrimidine-2,4(1H,3H)-dione]
IKZF2
  substrate protein remaining % IKZF2: B (80%< substrate protein remaining %≤ 100%)
  IKZF2 substrate protein remaining %: A ("A" is defined as 0% ≤ substrate protein remaining % ≤ 80%)
IKZF3
  substrate protein remaining % IKZF3: B (80%< substrate protein remaining %≤ 100%)
  IKZF3 substrate protein remaining %: B ("B" is defined as 80%< substrate protein remaining %≤ 100%)
WEE1
  substrate protein remaining % WEE1: B (80%< substrate protein remaining %≤ 100%)
  WEE1 substrate protein remaining %: A ("A" is defined as 0% ≤ substrate protein remaining % ≤ 80%)
CK1α
  substrate protein remaining % CK1α: B (80%< substrate protein remaining %≤ 100%)
  CK1α substrate protein remaining %: B ("B" is defined as 80%< substrate protein remaining %≤ 100%)
GSPT1
  substrate protein remaining % GSPT1: A (0% ≤ substrate protein remaining % ≤ 80%)
  GSPT1 substrate protein remaining %: A ("A" is defined as 0% ≤ substrate protein remaining % ≤ 80%)
IKZF1
  substrate protein remaining % IKZF1: B (80%< substrate protein remaining %≤ 100%)
  IKZF1 substrate protein remaining %: B ("B" is defined as 80%< substrate protein remaining %≤ 100%)

## O=C1CCN(N2C(=O)c3ccc(CN4CC=C(c5cccc(F)c5Cl)CC4)cc3C2=O)C(=O)N1 [GT-06896, 5-((4-(2-chloro-3-fluorophenyl)-3,6-dihydropyridin-1(2H)-yl)methyl)-2-(2,4-dioxotetrahydropyrimidin-1(2H)-yl)isoindoline-1,3-dione]
IKZF2
  IKZF2 substrate protein remaining %: B ("B" is defined as 80%< substrate protein remaining %≤ 100%)
IKZF3
  IKZF3 substrate protein remaining %: B ("B" is defined as 80%< substrate protein remaining %≤ 100%)
WEE1
  WEE1 substrate protein remaining %: B ("B" is defined as 80%< substrate protein remaining %≤ 100%)
CK1α
  CK1α substrate protein remaining %: B ("B" is defined as 80%< substrate protein remaining %≤ 100%)
GSPT1
  GSPT1 substrate protein remaining %: B ("B" is defined as 80%< substrate protein remaining %≤ 100%)
IKZF1
  IKZF1 substrate protein remaining %: A ("A" is defined as 0% ≤ substrate protein remaining % ≤ 80%)
